Data published in ChEMBL document CHEMBL3124761, “Synthesis and biological evaluation of N,N'-squaramides with high in vivo efficacy and low toxicity: toward a low-cost drug against Chagas disease” (J Med Chem, 2014).
Active and inactive are the calls of the source. No cut-off for these calls is given here.

Assays:
Mus musculus [1] = assay: Toxicity in BALB/c albino mouse infected with blood trypomastigote stage of Trypanosoma cruzi assessed as change in alkaline phosphatase level in serum at 25 mg/kg, ip administered on day 7 to 12 post-infection measured after day 120 relative to control; assay type: organism-based; parameters: dose 25 mg/kg, route intraperitoneal; conditions: in vivo
Mus musculus [2] = assay: Toxicity in BALB/c albino mouse infected with blood trypomastigote stage of Trypanosoma cruzi assessed as change in ALT/GPT level in serum at 25 mg/kg, ip administered on day 7 to 12 post-infection measured after day 120 relative to control; assay type: organism-based; parameters: dose 25 mg/kg, route intraperitoneal; conditions: in vivo
Mus musculus [3] = assay: Toxicity in BALB/c albino mouse infected with blood trypomastigote stage of Trypanosoma cruzi assessed as increase in AST/GOT level in serum at 25 mg/kg, ip administered on day 7 to 12 post-infection measured after day 120 relative to control; assay type: organism-based; parameters: dose 25 mg/kg, route intraperitoneal; conditions: in vivo
Mus musculus [4] = assay: Toxicity in BALB/c albino mouse infected with blood trypomastigote stage of Trypanosoma cruzi assessed as change in total bilirubin level in serum at 25 mg/kg, ip administered on day 7 to 12 post-infection measured after day 120 relative to control; assay type: organism-based; parameters: dose 25 mg/kg, route intraperitoneal; conditions: in vivo
Mus musculus [5] = assay: Toxicity in BALB/c albino mouse infected with blood trypomastigote stage of Trypanosoma cruzi assessed as change in LDH level in serum at 25 mg/kg, ip administered on day 7 to 12 post-infection measured after day 120 relative to control; assay type: organism-based; parameters: dose 25 mg/kg, route intraperitoneal; conditions: in vivo
Mus musculus [6] = assay: Toxicity in BALB/c albino mouse infected with blood trypomastigote stage of Trypanosoma cruzi assessed as increase in creatinephophokinase-MB level in serum at 25 mg/kg, ip administered on day 7 to 12 post-infection measured after day 120 relative to control; assay type: organism-based; parameters: dose 25 mg/kg, route intraperitoneal; conditions: in vivo
Mus musculus [7] = assay: Toxicity in BALB/c albino mouse infected with blood trypomastigote stage of Trypanosoma cruzi assessed as increase in uric acid level in serum at 25 mg/kg, ip administered on day 7 to 12 post-infection measured after day 120 relative to control; assay type: organism-based; parameters: dose 25 mg/kg, route intraperitoneal; conditions: in vivo
Mus musculus [8] = assay: Toxicity in BALB/c albino mouse infected with blood trypomastigote stage of Trypanosoma cruzi assessed as change in urea level in serum at 25 mg/kg, ip administered on day 7 to 12 post-infection measured after day 120 relative to control; assay type: organism-based; parameters: dose 25 mg/kg, route intraperitoneal; conditions: in vivo
Trypanosoma cruzi [9] = assay: Trypanocidal activity against metacyclic trypomastigote stage of Trypanosoma cruzi infected in BALB/c albino mouse acute chagas disease model assessed as inhibition of parasitemia at 25 mg/kg, ip administered on day 7 to 12 post-infection measured every 2 days until day 40 […] relative to control; assay type: functional; conditions: route intraperitoneal
Trypanosoma cruzi [10] = assay: Trypanocidal activity against metacyclic trypomastigote stage of Trypanosoma cruzi infected in BALB/c albino mouse acute chagas disease model assessed as reduction of parasite burden at 25 mg/kg, ip administered on day 7 to 12 post-infection measured on day 14 by ELISA; assay type: functional, organism-based; parameters: dose 25 mg/kg
Mus musculus [11] = assay: Toxicity in BALB/c albino mouse assessed as mortality at 25 mg/kg, ip administered for 5 days; assay type: organism-based; parameters: dose 25 mg/kg, route intraperitoneal; conditions: in vivo, 120 h
Trypanosoma cruzi [12] = assay: Antitrypanosomal activity against trypomastigote stage of Trypanosoma cruzi IRHOD/CO/2008/SN3 assessed as reduction of trypomastigote number per mililiter of culture medium at IC25 preincubated for 12 hrs followed by compound washout measured every 48 hrs for 10 days by Neubauer hemocytometric chamber analysis relative to control; assay type: functional
Trypanosoma cruzi [13] = assay: Antitrypanosomal activity against amastigote stage of Trypanosoma cruzi IRHOD/CO/2008/SN3 infected in African green monkey Vero cells assessed as reduction of amastigote number per cell at IC25 preincubated for 12 hrs followed by compound washout measured every 48 hrs for 10 days by Neubauer hemocytometric chamber analysis relative to control; assay type: functional
Trypanosoma cruzi [14] = assay: Antitrypanosomal activity against amastigote stage of Trypanosoma cruzi IRHOD/CO/2008/SN3 infected in African green monkey Vero cells assessed as decrease in infection rate at IC25 preincubated for 12 hrs followed by compound washout measured every 48 hrs for 10 days by Neubauer hemocytometric chamber analysis relative to control; assay type: functional
[15] = Selectivity index, ratio of IC50 for African green monkey Vero cells to IC50 for amastigote stage of Trypanosoma cruzi IRHOD/CO/2008/SN3 infected in African green monkey Vero cells; assay type: toxicity, cell-based; conditions: read-out: Ratio IC50
[16] = Selectivity index, ratio of IC50 for African green monkey Vero cells to IC50 for epimastigote stage of Trypanosoma cruzi IRHOD/CO/2008/SN3; assay type: toxicity, cell-based; conditions: read-out: Ratio IC50
Vero = assay: Cytotoxicity against African green monkey Vero cells assessed as cell viability after 72 hrs by propidium iodide/fluorescein diacetate staining-based flow cytometric analysis; conditions: Chlorocebus sabaeus
Trypanosoma cruzi [17] = assay: Antitrypanosomal activity against amastigote stage of Trypanosoma cruzi IRHOD/CO/2008/SN3 infected in African green monkey Vero cells assessed as parasite growth inhibition after 72 hrs by Giemsa staining-based microscopic analysis; assay type: functional, organism-based; conditions: IRHOD/CO/2008/SN3, Vero
Trypanosoma cruzi [18] = assay: Antitrypanosomal activity against epimastigote stage of Trypanosoma cruzi IRHOD/CO/2008/SN3 assessed as parasite growth inhibition after 72 hrs by Neubauer hemocytometric chamber analysis; assay type: functional, organism-based; conditions: IRHOD/CO/2008/SN3, 72 h
Trypanosoma cruzi [19] = assay: Antitrypanosomal activity against epimastigote stage of Trypanosoma cruzi IRHOD/CO/2008/SN3 assessed as mortality at IC25 after 72 hrs by TEM analysis; assay type: functional, organism-based
Trypanosoma cruzi [20] = assay: Antitrypanosomal activity against epimastigote stage of Trypanosoma cruzi IRHOD/CO/2008/SN3 assessed as formation of electron-dense vacuoles at IC25 after 72 hrs by TEM analysis; assay type: functional, organism-based
Trypanosoma cruzi [21] = assay: Antitrypanosomal activity against epimastigote stage of Trypanosoma cruzi IRHOD/CO/2008/SN3 assessed as appearance of enormous reservosomes at IC25 after 72 hrs by TEM analysis; assay type: functional, organism-based
Trypanosoma cruzi [22] = assay: Antitrypanosomal activity against epimastigote stage of Trypanosoma cruzi IRHOD/CO/2008/SN3 assessed as appearance of swollen structure filled with empty vacuoles at IC25 after 72 hrs by TEM analysis; assay type: functional, organism-based
Trypanosoma cruzi [23] = assay: Antitrypanosomal activity against epimastigote stage of Trypanosoma cruzi IRHOD/CO/2008/SN3 assessed as change in excreted succinate level at IC25 after 96 hrs by 1H NMR analysis relative to control; assay type: functional
Trypanosoma cruzi [24] = assay: Antitrypanosomal activity against epimastigote stage of Trypanosoma cruzi IRHOD/CO/2008/SN3 assessed as change in excreted pyruvate level at IC25 after 96 hrs by 1H NMR analysis relative to control; assay type: functional
Trypanosoma cruzi [25] = assay: Antitrypanosomal activity against epimastigote stage of Trypanosoma cruzi IRHOD/CO/2008/SN3 assessed as change in excreted acetate level at IC25 after 96 hrs by 1H NMR analysis relative to control; assay type: functional
Trypanosoma cruzi [26] = assay: Antitrypanosomal activity against epimastigote stage of Trypanosoma cruzi IRHOD/CO/2008/SN3 assessed as change in excreted alanine level at IC25 after 96 hrs by 1H NMR analysis relative to control; assay type: functional
Trypanosoma cruzi [27] = assay: Antitrypanosomal activity against epimastigote stage of Trypanosoma cruzi IRHOD/CO/2008/SN3 assessed as change in excreted lactate level at IC25 after 96 hrs by 1H NMR analysis relative to control; assay type: functional
Mus musculus [28] = assay: Toxicity in BALB/c albino mouse infected with blood trypomastigote stage of Trypanosoma cruzi assessed as decrease in ALT/GPT level in serum at 25 mg/kg, ip administered on day 7 to 12 post-infection measured after day 120 relative to control; assay type: organism-based; parameters: dose 25 mg/kg, route intraperitoneal; scale not given: the % may be the effect or the level left; conditions: in vivo
Mus musculus [29] = assay: Toxicity in BALB/c albino mouse infected with blood trypomastigote stage of Trypanosoma cruzi assessed as increase in total bilirubin level in serum at 25 mg/kg, ip administered on day 7 to 12 post-infection measured after day 120 relative to control; assay type: organism-based; parameters: dose 25 mg/kg, route intraperitoneal; conditions: in vivo
Mus musculus [30] = assay: Toxicity in BALB/c albino mouse infected with blood trypomastigote stage of Trypanosoma cruzi assessed as decrease in creatinephophokinase-MB level in serum at 25 mg/kg, ip administered on day 7 to 12 post-infection measured after day 120 relative to control; assay type: organism-based; parameters: dose 25 mg/kg, route intraperitoneal; scale not given: the % may be the effect or the level left; conditions: in vivo
Mus musculus [31] = assay: Toxicity in BALB/c albino mouse infected with blood trypomastigote stage of Trypanosoma cruzi assessed as change in uric acid level in serum at 25 mg/kg, ip administered on day 7 to 12 post-infection measured after day 120 relative to control; assay type: organism-based; parameters: dose 25 mg/kg, route intraperitoneal; conditions: in vivo

Row | SMILES | Activity (Mus musculus [1]) | Activity (Mus musculus [3]) | Activity (Mus musculus [5]) | Activity (Mus musculus [8]) | inhibition in vivo at 25 mg/kg (Trypanosoma cruzi [9]) | Activity (Trypanosoma cruzi [10]) | Activity (Mus musculus [11]) | inhibition (INH) (Trypanosoma cruzi [12]) | inhibition (INH) (Trypanosoma cruzi [13]) | inhibition (INH) (Trypanosoma cruzi [14]) | selectivity ratio [15] | selectivity ratio [16] | IC50 (Vero) | IC50 (Trypanosoma cruzi [17]) | IC50 (Trypanosoma cruzi [18]) | Activity (Trypanosoma cruzi [23]) | Activity (Trypanosoma cruzi [24]) | Activity (Trypanosoma cruzi [25]) | Activity (Trypanosoma cruzi [26]) | Activity (Trypanosoma cruzi [27]) | also measured
1 | CN(CCCNc1c(NCCC[N+](C)(C)C)c(=O)c1=O)CCCNc1c(NCCC[N+](C)(C)C)c(=O)c1=O.[I-].[I-] | < 10% | 40% | < 10% | < 10% | 37% | Active | Non-toxic | 49% | 30% | 30% | 17.5 | 16.2 | 301 µM | 17.1 µM | 18.5 µM | -21.2% | 37.4% | -12% | -13.3% | -20.6% | Activity (Mus musculus [2]): < 10%; Activity (Mus musculus [4]): < 10%; Activity (Mus musculus [6]): 30%; Activity (Mus musculus [7]): 30%; Activity (Trypanosoma cruzi [19]): Active; Activity (Trypanosoma cruzi [20]): Active; Activity (Trypanosoma cruzi [21]): Active; Activity (Trypanosoma cruzi [22]): Active
2 | CCCCNc1c(NCCCN(CCCC)CCCC)c(=O)c1=O | < 10% | 40% | < 10% | < 10% | 21% | Active | Non-toxic | 38% | 45% | 61% | 24.6 | 13.3 | 148 µM | 6 µM | 21.1 µM | -21.6% | -12% | 8.5% | -7.9% | -22.3% | Activity (Mus musculus [28]): 10%; Activity (Mus musculus [29]): 30%; Activity (Mus musculus [30]): 30%; Activity (Mus musculus [31]): < 10%
